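Protocol summary: plate cells (96-well), add compound at 5 concentrations, incubate 48 h, interpolate endpoints linearly. GI50 marks 50% less growth.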 Calls of active or inactive are those of the source. No stated cut-off is given here; in the data, active = GI50 up to about 1.1 µM and inactive = higher.
Tests used:
Experiment in all cases: DTP human tumour cell line panel, 48 h
[1] = test system: SNB-19
[2] = test system: UACC-62
[3] = test system: COLO 205
[4] = test system: PC-3
[5] = test system: DU-145
[6] = test system: MDA-MB-231
[7] = test system: UACC-257
[8] = test system: SK-MEL-5
[9] = test system: U-251
[10] = test system: UO-31
[11] = test system: K562
[12] = test system: NCI-H226
[13] = test system: TK-10
[14] = test system: SNB-75
[15] = test system: OVCAR-5
[16] = test system: OVCAR-4
[17] = test system: SF-295
[18] = test system: SK-MEL-28
[19] = test system: SN12C
[20] = test system: Malme-3M

Row | Structure (SMILES) | GI50 [1] | GI50 [2] | GI50 [3] | GI50 [4] | GI50 [5] | GI50 [6] | GI50 [7] | GI50 [8] | GI50 [9] | GI50 [10] | GI50 [11] | GI50 [12] | GI50 [13] | GI50 [14] | GI50 [15] | GI50 [16] | GI50 [17] | GI50 [18] | GI50 [19] | GI50 [20]
1 | CN1N=C(c2ccncc2)OC1c1cccc(F)c1 (centres undefined) | > 100 µM (inactive) | > 100 µM (inactive) | > 100 µM (inactive) | > 100 µM (inactive) | > 100 µM (inactive) | > 100 µM (inactive) | > 100 µM (inactive) | > 100 µM (inactive) | > 100 µM (inactive) | > 100 µM (inactive) | > 100 µM (inactive) | 68.5 µM (inactive) | > 100 µM (inactive) | > 100 µM (inactive) | > 100 µM (inactive) | > 100 µM (inactive) | > 100 µM (inactive) | > 100 µM (inactive) | > 100 µM (inactive) | –
2 | OC1CN2CCS[C@H]2C(O)C1O (some centres undefined) | > 100 µM (inactive) | > 100 µM (inactive) | > 100 µM (inactive) | > 100 µM (inactive) | > 100 µM (inactive) | > 100 µM (inactive) | > 100 µM (inactive) | > 100 µM (inactive) | > 100 µM (inactive) | > 100 µM (inactive) | > 100 µM (inactive) | > 100 µM (inactive) | > 100 µM (inactive) | > 100 µM (inactive) | > 100 µM (inactive) | > 100 µM (inactive) | > 100 µM (inactive) | > 100 µM (inactive) | – | > 100 µM (inactive)
3 | Nc1ncnc2c1ncn2C1OC(CO)CC1O (centres undefined) | 26.9 µM (inactive) | 36.6 µM (inactive) | 93.5 µM (inactive) | 9.27 µM (inactive) | 30.1 µM (inactive) | 17.9 µM (inactive) | > 100 µM (inactive) | > 100 µM (inactive) | 41.7 µM (inactive) | > 100 µM (inactive) | 7.93 µM (inactive) | > 100 µM (inactive) | > 100 µM (inactive) | 35.2 µM (inactive) | > 100 µM (inactive) | > 100 µM (inactive) | 58.7 µM (inactive) | 25.6 µM (inactive) | 25.6 µM (inactive) | –
4 | C=CCCCC1CCCNC1=S (centres undefined) | > 100 µM (inactive) | > 100 µM (inactive) | – | > 100 µM (inactive) | > 100 µM (inactive) | > 100 µM (inactive) | > 100 µM (inactive) | > 100 µM (inactive) | > 100 µM (inactive) | > 100 µM (inactive) | > 100 µM (inactive) | > 100 µM (inactive) | > 100 µM (inactive) | > 100 µM (inactive) | > 100 µM (inactive) | > 100 µM (inactive) | > 100 µM (inactive) | > 100 µM (inactive) | > 100 µM (inactive) | –
5 | COc1cc2c(cc1OC)CC1c3cc(OC)c(OC)cc3CCN1CC2 (centres undefined) | 0.49 µM (active) | 67 µM (inactive) | > 100 µM (inactive) | > 100 µM (inactive) | > 100 µM (inactive) | > 100 µM (inactive) | > 100 µM (inactive) | 30.8 µM (inactive) | 52.8 µM (inactive) | 0.199 µM (active) | 89.7 µM (inactive) | 19.6 µM (inactive) | > 100 µM (inactive) | > 100 µM (inactive) | > 100 µM (inactive) | > 100 µM (inactive) | 95.1 µM (inactive) | > 100 µM (inactive) | > 100 µM (inactive) | –
6 | O=C1Oc2ccccc2N/C1=C/C(=O)c1ccc([N+](=O)[O-])cc1 | > 100 µM (inactive) | 45.8 µM (inactive) | > 100 µM (inactive) | 80.7 µM (inactive) | > 100 µM (inactive) | > 100 µM (inactive) | > 100 µM (inactive) | > 100 µM (inactive) | > 100 µM (inactive) | > 100 µM (inactive) | > 100 µM (inactive) | > 100 µM (inactive) | > 100 µM (inactive) | > 100 µM (inactive) | > 100 µM (inactive) | > 100 µM (inactive) | > 100 µM (inactive) | – | > 100 µM (inactive) | > 100 µM (inactive)
7 | CC1(C)[C@@H](Cn2nnc3c(N)ncnc32)CC[C@@]1(C)CO | > 100 µM (inactive) | > 100 µM (inactive) | – | > 100 µM (inactive) | > 100 µM (inactive) | > 100 µM (inactive) | > 100 µM (inactive) | 55 µM (inactive) | > 100 µM (inactive) | > 100 µM (inactive) | > 100 µM (inactive) | > 100 µM (inactive) | > 100 µM (inactive) | > 100 µM (inactive) | > 100 µM (inactive) | > 100 µM (inactive) | > 100 µM (inactive) | > 100 µM (inactive) | > 100 µM (inactive) | –
8 | C=C(C)C(=O)OC1C(C(C)CCCO)=C(CO)CC2OC(=O)C(=C)C21 (centres undefined) | 37.9 µM (inactive) | 14.9 µM (inactive) | 15.1 µM (inactive) | 24.4 µM (inactive) | 14.6 µM (inactive) | 17.5 µM (inactive) | 17.1 µM (inactive) | 14 µM (inactive) | 20.2 µM (inactive) | – | 15.2 µM (inactive) | 37.9 µM (inactive) | 30.3 µM (inactive) | 10.4 µM (inactive) | 22.1 µM (inactive) | 28.1 µM (inactive) | 47.2 µM (inactive) | 20 µM (inactive) | 16.1 µM (inactive) | 0.509 µM (active)
9 | CCC(C)NC1=NCC(C)S1 (centres undefined) | > 100 µM (inactive) | > 100 µM (inactive) | > 100 µM (inactive) | > 100 µM (inactive) | > 100 µM (inactive) | > 100 µM (inactive) | > 100 µM (inactive) | > 100 µM (inactive) | > 100 µM (inactive) | > 100 µM (inactive) | > 100 µM (inactive) | > 100 µM (inactive) | – | > 100 µM (inactive) | > 100 µM (inactive) | – | > 100 µM (inactive) | > 100 µM (inactive) | > 100 µM (inactive) | > 100 µM (inactive)
10 | C=C1CC(C)(c2ccc(Nc3nc4ccccc4c4occc34)cc2)OC1=O (centres undefined) | 7.45 µM (inactive) | – | 3.59 µM (inactive) | 4.36 µM (inactive) | 8.13 µM (inactive) | 1.75 µM (inactive) | 0.0186 µM (active) | 5.09 µM (inactive) | 5.33 µM (inactive) | – | 4.71 µM (inactive) | < 0.01 µM (active) | 4.86 µM (inactive) | 1.92 µM (inactive) | 14.1 µM (inactive) | 1.77 µM (inactive) | 12.8 µM (inactive) | 13.9 µM (inactive) | 1.93 µM (inactive) | 17.2 µM (inactive)
11 | Cc1ccc2nc(-c3ccc(C(C)(C)C)cc3)oc(=O)c2c1 | 25.2 µM (inactive) | 17.5 µM (inactive) | 18.2 µM (inactive) | 20.7 µM (inactive) | 26.7 µM (inactive) | 20.6 µM (inactive) | 18.9 µM (inactive) | 14.3 µM (inactive) | 16.2 µM (inactive) | 26.6 µM (inactive) | 17.3 µM (inactive) | – | 39.7 µM (inactive) | 14.2 µM (inactive) | 28.8 µM (inactive) | 20.7 µM (inactive) | 17.8 µM (inactive) | 27.4 µM (inactive) | 38.8 µM (inactive) | 21.6 µM (inactive)
12 | CC1=NC(C)(C)[N+]([O-])=C1 | > 10 µM (inactive) | > 10 µM (inactive) | > 10 µM (inactive) | > 10 µM (inactive) | > 10 µM (inactive) | > 10 µM (inactive) | > 10 µM (inactive) | > 10 µM (inactive) | > 10 µM (inactive) | > 10 µM (inactive) | > 10 µM (inactive) | > 10 µM (inactive) | > 10 µM (inactive) | 0.0718 µM (active) | > 10 µM (inactive) | – | > 10 µM (inactive) | > 10 µM (inactive) | > 10 µM (inactive) | 8.73 µM (inactive)
13 | CC(=O)C1(c2ccccc2)CCCN(C)CC1 (centres undefined) | > 100 µM (inactive) | > 100 µM (inactive) | > 100 µM (inactive) | > 100 µM (inactive) | > 100 µM (inactive) | > 100 µM (inactive) | > 100 µM (inactive) | > 100 µM (inactive) | > 100 µM (inactive) | > 100 µM (inactive) | – | > 100 µM (inactive) | > 100 µM (inactive) | > 100 µM (inactive) | > 100 µM (inactive) | > 100 µM (inactive) | > 100 µM (inactive) | > 100 µM (inactive) | – | > 100 µM (inactive)
14 | CO/C(=N\N=C(/c1ccccc1)C(F)(F)F)c1ccncc1 | > 100 µM (inactive) | 27.5 µM (inactive) | 28.7 µM (inactive) | 26.1 µM (inactive) | 44.5 µM (inactive) | 39.3 µM (inactive) | – | 21.8 µM (inactive) | 48.4 µM (inactive) | 38.6 µM (inactive) | 6.44 µM (inactive) | 17.2 µM (inactive) | – | 34.9 µM (inactive) | > 100 µM (inactive) | 80.7 µM (inactive) | 48.6 µM (inactive) | 57.7 µM (inactive) | 66.8 µM (inactive) | 72.8 µM (inactive)
15 | Clc1ccc(C2ON=C(c3ccccc3)N2C23CC4CC(CC(C4)C2)C3)cc1 (centres undefined) | > 10 µM (inactive) | > 10 µM (inactive) | > 10 µM (inactive) | > 10 µM (inactive) | > 10 µM (inactive) | > 10 µM (inactive) | > 10 µM (inactive) | > 10 µM (inactive) | > 10 µM (inactive) | – | > 10 µM (inactive) | > 10 µM (inactive) | > 10 µM (inactive) | > 10 µM (inactive) | > 10 µM (inactive) | > 10 µM (inactive) | > 10 µM (inactive) | > 10 µM (inactive) | > 10 µM (inactive) | > 10 µM (inactive)

— ChEMBL document CHEMBL1201862, “PubChem BioAssay data set” (2004)
